From patent publication US20120016009A1, “Optimized Methods For Delivery Of DSRNA Targeting The PCSK9 Gene” (priority 2008, published 2012)
In the oligonucleotide strings, read from the 5' end, every base follows the letter of its sugar. An asterisk marks phosphorothioate; unmarked linkages are phosphodiester. Other units and linkages are bracketed, terminal groups are in braces. A string of capitals states the bases alone. [Ab] = 3'-terminal abasic nucleotide; e = 2'-O-(2-methoxyethyl) (MOE); d = 2'-deoxy (DNA); m = 2'-O-methyl; r = 2'-OH (RNA); {P} = phosphate; f = 2'-fluoro

Tested on: PCSK9 mRNA
Assay: In vitro screening of modified dsRNAs targeted to PCSK9 (Table 2b; cell type not given)
Format: cell-based
Conditions: 30 nM siRNA
Description: For transfection with siRNA, HuH7, HepG2, or HeLa cells were seeded at a density of 2.0×10^4 cells/well in 96-well plates and transfected directly. Transfection of siRNA (30 nM for single dose screen) was carried out with lipofectamine 2000 (Invitrogen GmbH, Karlsruhe, Germany, cat. No. 11668-019) as described by the manufacturer.
24 hours after transfection HuH7 and HepG2 cells were lysed and PCSK9 mRNA levels were quantified with the Quantigene Explore Kit (Genosprectra, Dumbarton Circle Fremont, USA, cat. No. QG-000-02) according to the protocol. PCSK9 mRNA levels were normalized to GAP-DH mRNA. For each siRNA eight individual datapoints were collected. siRNA duplexes unrelated to PCSK9 gene were used as control. The activity of a given PCSK9 specific siRNA duplex was expressed as percent PCSK9 mRNA concentration in treated cells relative to PCSK9 mRNA concentration in cells treated with the control siRNA duplex.
Tables 1b and 2b (and FIG. 6A) summarize the results and provide examples of in vitro screens in different cell lines at different doses. Silencing of PCSK9 transcript was expressed as percentage of remaining transcript at a given dose.

Compared with “AD-12384: modified dsRNA, SEQ ID NO:1463/1464 (chain 1 rGmCmCmUrGrGrArGmUmUmUrAmUmUmCrGrGrArAdT*dT; chain 2 {P}-fUfUfCfCrGrArAfUrArArAfCfUfCfCrArGrGfCdT*dT)”, “AD-12390: modified dsRNA, SEQ ID NO:1475/1476 (chain 1 rGfCfCfUrGrGrArGrGfUfUfUrAfUfUfCrGrGrArA; chain 2 rUrUrCrCrGrArArUrArArArCrUrCrCrArGrGrC*mC*mU)” is higher in “Remaining mRNA in % of controls at siRNA conc. of 30 nM” value (shortened to “Remaining mRNA in % of controls”): 8% for the first, 17% for the second.

First: AD-12397: modified dsRNA, SEQ ID NO:1489/1490 (chain 1 fGmCfCmUfGmGfAmGfUmUfUmAfUmUfCmGfGmAfA; chain 2 {P}-fUfUfCfCrGrArAfUrArArAfCfUfCfCrArGrGfC*fC*fU)
Second: AD-12062: modified dsRNA, SEQ ID NO:1359/1360 (chain 1 rGmCrCmUrGmGrAmGrUmUrUmArUmUrCmGrGmArAdTdT[Ab]; chain 2 rUrUrCrCrGmAmArUrAmAmArCrUrCrCrAmGmGmCdTdT[Ab])
The “Remaining mRNA in % of controls” value of the first is higher: 20% for the first, 10% for the second.

Going from “AD-12347: modified dsRNA, SEQ ID NO:1393/1394 (chain 1 rGrCrCrUrGrGrArGrUrUrUrArUrUrCrGrGrArAdT*dT; chain 2 {P}-mUfUmCfCmGfAmAfUmAfAmAfCmUfCmCfAmGfGmCdT*dT)” to “AD-12382: modified dsRNA, SEQ ID NO:1459/1460 (chain 1 rGfCfCfUrGrGrArGfUfUfUrAfUfUfCrGrGrArAdT*dT; chain 2 {P}-fUfUfCfCrGrArAfUrArArAfCfUfCfCrArGrGfCdT*dT)”, the “Remaining mRNA in % of controls” value falls from 11% to 7%.

Compared with “AD-12361: modified dsRNA, SEQ ID NO:1419/1420 (chain 1 GCCUGGAGUUUAUUCGGAA; chain 2 rUrUrCrCrGrArAmUrArArArCrUrCmCrArGrGrCdT*dT; chain 1: sugars from the 5' end rererererererererer, all phosphodiester, methylation of C and T or U not given here)”, “AD-12368: modified dsRNA, SEQ ID NO:1433/1434 (chain 1 GCCUGGAGUUUAUUCGGAATT; chain 2 rUrUrCrCrGrArAmUrArArArCrUrCmCrArGrGrCdT*dT; chain 1: DNA at T, 2'-MOE at CU, RNA at AG, linkages o19 s1 (s phosphorothioate, o phosphodiester), methylation of C and T or U not given here)” is higher in “Remaining mRNA in % of controls” value: 20% for the first, 40% for the second.

Going from “AD-12340: modified dsRNA, SEQ ID NO:1379/1380 (chain 1 rGmCmCmUrGrGrArGmUmUmUrAmUmUmCrGrGrArA; chain 2 {P}-mUfUmCfCmGfAmAfUmAfAmAfCmUfCmCfAmGfGmC)” to “AD-12386: modified dsRNA, SEQ ID NO:1467/1468 (chain 1 fGmCfCmUfGmGfAmGfUmUfUmAfUmUfCmGfGmAfA; chain 2 {P}-fUfUfCfCrGrArAfUrArArAfCfUfCfCrArGrGfCdT*dT)”, the “Remaining mRNA in % of controls” value falls from 19% to 11%.

Compared with “AD-12047: modified dsRNA, SEQ ID NO:1329/1330 (chain 1 rGmCmCmUrGrGrArGmUmUmUrAmUmUmCrGrGrArArA; chain 2 rUrUrUrCrCrGrArArUrArArArCrUrCrCrArGrGrC*mC*mU)”, “AD-12403: modified dsRNA, SEQ ID NO:1501/1502 (chain 1 rGfCfCfUrGrGrArGrGfUfUfUrAfUfUfCrGrGrArA; chain 2 {P}-fUfUfCfCrGrArAfUrArArAfCfUfCfCrArGrGfC*fC*fU)” is lower in “Remaining mRNA in % of controls” value: 17% for the first, 4% for the second.

In the case of “AD-12358: modified dsRNA, SEQ ID NO:1413/1414 (chain 1 GCCUGGAGUUUAUUCGGAA; chain 2 {P}-mUfUmCfCmGfAmAfUmAfAmAfCmUfCmCfAmGfGmC; chain 1: sugars from the 5' end rererererererererer, all phosphodiester, methylation of C and T or U not given here)”, the “Remaining mRNA in % of controls” value is reported as 29%.
